Measurements reported in ChEMBL document CHEMBL1124348, “Synthesis and biological evaluation of substituted benzo[h]cinnolinones and 3H-benzo[6,7]cyclohepta[1,2-c]pyridazinones: higher homologues of the antihypertensive and antithrombotic 5H-indeno[1,2-c]pyridazinones” (J Med Chem, 1989).
Calls of active or inactive are those of the source. The rule behind the calls is not given here.

Experiments:
Cavia porcellus [1] = organism: Cavia porcellus; assay: In vitro irreversible inhibitory activity of adenosine diphosphate (0.5 uM)-induced platelet aggregation in guinea pig platelet rich plasma; format: functional
Cavia porcellus [2] = organism: Cavia porcellus; assay: In vitro inhibitory activity of collagen (0.8 ug/mL)-induced platelet aggregation in guinea pig platelet rich plasma at a dose of 0.8 ug/mL; format: functional
Rattus norvegicus [3] = assay: Variation in heart rate when 25 mg/kg administered orally in rats; format: functional; settings: route oral
Cavia porcellus [4] = organism: Cavia porcellus; assay: Inotropic activity against guinea pig spontaneously beating atria; format: functional
Rattus norvegicus [5] = organism: Rattus norvegicus; assay: Antihypertensive action versus dihydralazine; format: functional
Rattus norvegicus [6] = assay: Antihypertensive activity in hypertensive rats, after peroral administration that lowered the blood pressure by 50 mmHg; format: functional; settings: po
[7] = Lethal dose in mouse was determined by administering perorally; format: toxicity, organism-based; settings: in vivo, po
Cavia porcellus [8] = organism: Cavia porcellus; assay: In vitro reversible inhibitory activity of adenosine diphosphate (0.5 uM)-induced platelet aggregation in guinea pig platelet rich plasma; format: functional
Cavia porcellus [9] = organism: Cavia porcellus; assay: In vitro inhibitory activity of thrombin (0.625 IU/mL)-induced platelet aggregation in guinea pig platelet rich plasma after 4 min; format: functional
[10] = (§1) Lethal dose in mouse by administering compound intraperitoneally; format: toxicity, organism-based; settings: in vivo, ip
Cavia porcellus [11] = organism: Cavia porcellus; assay: In vitro inhibitory activity of thrombin (0.625 IU/mL)-induced platelet aggregation in guinea pig platelet rich plasma after 2 min; format: functional
Mus musculus [12] = assay: Antithrombotic activity in mouse when administered a dose of 20 mg/kg perorally; format: functional; settings: route oral
Rattus norvegicus [13] = assay: Antihypertensive activity in hypertensive rats, after peroral administration that lowered the blood pressure by 50 mmHg; Valure ranges from 1.67 to 5.40; format: functional; settings: po
Mus musculus [14] = assay: as §1; format: toxicity, organism-based; settings: in vivo, ip
Rattus norvegicus [15] = assay: divya_inp96 Antihypertensive activity in hypertensive rats, after peroral administration that lowered the blood pressure by 50 mmHg; format: functional; settings: po
Rattus norvegicus [16] = assay: Antihypertensive activity in hypertensive rats, after peroral administration that lowered the blood pressure by 50 mmHg; value ranges from 0.52 to 4.88; format: functional; settings: po
Rattus norvegicus [17] = assay: Antihypertensive activity in hypertensive rats, after peroral administration that lowered the blood pressure by 50 mmHg; value ranges from 2.50 to 6.50; format: functional; settings: po
[18] = divya_inp96 Lethal dose in mouse by administering compound intraperitoneally; format: toxicity, organism-based; settings: in vivo, ip
Cavia porcellus [19] = organism: Cavia porcellus; assay: Inhibitory activity of thrombin (0.625 IU/mL)-induced platelet aggregation in guinea pig platelet rich plasma after 2 min; format: functional
Rattus norvegicus [20] = assay: Antihypertensive activity in hypertensive rats, after peroral administration that lowered the blood pressure by 50 mmHg; value ranges from 6.52 to 14.62; format: functional; settings: po
Rattus norvegicus [21] = assay: Antihypertensive activity in hypertensive rats, after peroral administration that lowered the blood pressure by 50 mmHg; value ranges from 3.50 to 4.80; format: functional; settings: po
Cavia porcellus [22] = organism: Cavia porcellus; assay: In vitro reversible inhibitory activity of adenosine diphosphate (0.5 uM)-induced platelet aggregation in guinea pig platelet rich plasma; NA means inactive; format: functional
Cavia porcellus [23] = organism: Cavia porcellus; assay: In vitro irreversible inhibitory activity of adenosine diphosphate (0.5 uM)-induced platelet aggregation in guinea pig platelet rich plasma; NA means inactive; format: functional
Mus musculus [24] = assay: Antithrombotic activity in mouse when administered a dose of 20 mg/kg perorally; NA means inactive; format: functional, organism-based; set-up: dose 20 mg/kg

SMILES	Inhibition (Cavia porcellus [1]) [%]	Inhibition (Cavia porcellus [2]) [%]	Peak effect (Rattus norvegicus [3])	pD2 (Cavia porcellus [4])	Relative activity (Rattus norvegicus [5])	LD50 [7] [mg/kg]	Inhibition (Cavia porcellus [8]) [%]	Inhibition (Cavia porcellus [9]) [%]	LD50 [10] [mg/kg]	Inhibition (Cavia porcellus [11]) [%]	Protection (Mus musculus [12]) [%]	also measured
CC(=O)Nc1ccc2c(c1)CCc1cc(O)nnc1-2	95	6	50	5.77	1.14	> 1000	40	86	651	81	55	ED50 (Rattus norvegicus [6]): 3.6 mg/kg
CC(=O)Nc1ccc2c(c1)C1=NNC(=O)CC1CC2 (stereo not given)	6	62				> 1000	0	14	> 1000	17	25	
CC(=O)Nc1ccc2c(c1)CCC1CC(=O)NN=C21 (racemic)	92	47		5.54	1.32	> 1000	47	66		65		ED50 (Rattus norvegicus [13]): 3.1 mg/kg; Peak effect (Rattus norvegicus [3]; 25 mg/kg): 90; LD50 (Mus musculus [14]): 460 mg/kg; Protection (Mus musculus [12]; 20 mg/kg): 100%
CC(=O)Nc1ccc2c(c1)CCC1CC(=O)NN=C21 (stereo in doubt; (-)-3c)	76	10					37	63		62		Protection (Mus musculus [12]; 20 mg/kg): 84%
CC(=O)Nc1ccc2c(c1)CCCC1CC(=O)NN=C21 (stereo not given)						> 1000			> 1000		46	
CC(Cl)C(=O)Nc1ccc2c(c1)CCC1CC(=O)NN=C21 (stereo not given)						> 1000			> 1000		33	
N/N=c1\[nH][nH]/c(=N\N)c2ccccc12 [DIHYDRALAZINE]			68		1							ED50 (Rattus norvegicus [15]): 64.1 mg/kg
CC(=O)Nc1ccc2c(c1)CCC1CC(=O)NN=C21 (single isomer, unassigned; (+))	77	2		5.65	1.95		36	100		91		ED50 (Rattus norvegicus [16]): 2.1 mg/kg; Peak effect (Rattus norvegicus [3]; 25 mg/kg): 55; LD50 (Mus musculus [14]): > 1000 mg/kg; Protection (Mus musculus [12]; 20 mg/kg): 89%
Cn1c(=O)c2[nH]cnc2n(C)c1=O.Cn1c(=O)c2[nH]cnc2n(C)c1=O.NCCN [AMINOPHYLLINE]				5.91								
Nc1ccc2c(c1)CCC1CC(=O)NN=C21 (stereo not given)	42	21	90	4.93	1.17	> 1000	10	27	611	13	73	ED50 (Rattus norvegicus [17]): 3.5 mg/kg
Nc1ccc2c(c1)CCCC1CC(=O)NN=C21 (stereo not given)						700			483		45	
CC(=O)Oc1ccccc1C(=O)O [ASPIRIN]	100	75				> 1000	0	0			44	LD50 [18]: 6500 mg/kg; Inhibition (Cavia porcellus [19]): 0%
O=C1CC2CCc3ccccc3C2=NN1 (stereo not given)	95	100	70	4.98		666	30	97	450	84	59	ED50 (Rattus norvegicus [6]): 23.5 mg/kg
Nc1ccc2c(c1)CC1CC(=O)NN=C21 (stereo not given)			49	5.05	0.37							ED50 (Rattus norvegicus [20]): 11 mg/kg
CC(=O)Nc1ccc2c(c1)CC1CC(=O)NN=C21 (stereo not given)			53	5.95	0.58							ED50 (Rattus norvegicus [21]): 7.1 mg/kg
Oc1cc2c(nn1)-c1ccccc1CC2			-35	4.74		> 1000			707		33	ED50 (Rattus norvegicus [6]): > 25 mg/kg
CC(=O)Nc1cccc2c1CCC1CC(=O)NN=C21 (stereo not given)						> 1000			378			inhibition (Cavia porcellus [22]): inactive; inhibition (Cavia porcellus [23]): inactive; Protection (Mus musculus [24]): inactive
N#Cc1ccc2c(c1)CCC1CC(=O)NN=C21 (stereo not given)						> 1000			560			Protection (Mus musculus [24]): inactive
